The values below come from patent US8618095B2 (Rigel Pharmaceuticals, Inc., priority 2010, dated 2013).

SMILES strings stand for the structures. pIC50: −log10 of the molar value. Counter-ions that a name gives are not always drawn.

The first experiment has as its system Human mast cells (CHMC). The experiment is described as follows: LD Tryptase release assay in CHMC (mast cell activation induced by FcγR cross-linking). The settings on record: Homo sapiens, Mast cell, anti-IgG stimulation, activity of tryptase released upon degranulation. Type of experiment: cell-based. The essentials:
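Mast cells derived from CD38-negative progenitors were preincubated 1 h at 37 °C with compound in HEPES-buffered saline (pH 7.4, 0.1% BSA, compound diluted in buffer with 2% MeOH/1% DMSO). Cells were then stimulated 60 min with anti-human IgG (final 1 μg/mL). Released tryptase was measured on Z-Ala-Lys-Arg-AMC (30 min, room temperature, 355/460 nm) to give the IC50.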
On to `O=C1COc2ccc(Nc3nc(Nc4ccc(N5CCCCC5)cc4)ncc3F)nc2N1` [Compound 83, N4-(3,4-dihydro-3-oxo-2H-pyrido[3,2-b][1,4]oxazin-6-yl)-5-fluoro-N2-[4-(piperidin-1-yl)phenyl]-2,4-pyrimidinediamine], for which the pIC50 – broadly, −log10 of the IC50, conventionally taken in molar units – was 6.30 to 7.00.

As to `CCOC1CCN(c2ccc(Nc3ncc(F)c(Nc4ccc5c(n4)NC(=O)C(C)(C)O5)n3)cn2)CC1` [Compound 54, N4-(2,2-dimethyl-3,4-dihydro-3-oxo-2H-pyrido[3,2-b][1,4]oxazin-6-yl)-5-fluoro-N2-[6-(4-ethoxypiperidin-1-yl)pyridin-3-yl]-2,4-pyrimidinediamine], the pIC50 was 4.00 to 6.00.

As to `C[C@H]1CN(c2ccc(Nc3ncc(F)c(Nc4ccc5c(n4)NC(=O)CO5)n3)cc2)CCO1` [Compound 80], the negative-log IC50 (pIC50) is more than 7.00.

Take `CC(C)[C@H]1COC(=O)N1c1ccc(Nc2ncc(F)c(Nc3ccc4c(n3)NC(=O)C(C)(C)O4)n2)cn1` [Compound 74, N4-(2,2-dimethyl-3,4-dihydro-3-oxo-2H-pyrido[3,2-b][1,4]oxazin-6-yl)-5-fluoro-N2-[6-((4S)-4-isopropyl-2-oxooxazolidin-3-yl)pyridin-3-yl]-2,4-pyrimidinediamine]: the pIC50 was 4.00 to 6.00.

On to `CCN[C@@H]1CCN(c2ccc(Nc3ncc(F)c(Nc4ccc5c(n4)NC(=O)C(C)(C)O5)n3)cn2)C1` [Compound 68, N4-(2,2-dimethyl-3,4-dihydro-3-oxo-2H-pyrido[3,2-b][1,4]oxazin-6-yl)-5-fluoro-N2-[6-((3R)-3-(ethylamino)pyyriolidin-1-yl)pyridin-3-yl]-2,4-pyrimidinediamine], for which the pIC50 was 6.30 to 7.00.

`CC1(C)CN(c2ncc(Nc3ncc(F)c(Nc4ccc5c(n4)NC(=O)CO5)n3)cc2F)CCO1` [Compound 17, N4-(3,4-dihydro-3-oxo-2H-pyrido[3,2-b][1,4]oxazin-6-yl)-5-fluoro-N2-[5-fluoro-6-(2,2-dimethylmorpholino)pyridin-3-yl]-2,4-pyrimidinediamine]: the pIC50 is 6.30 to 7.00.

Consider `CC1(C)Oc2ccc(Nc3nc(Nc4ccc(N5CCOCC5)c(OC(F)F)c4)ncc3F)nc2NC1=O` [Compound 25, N4-(2,2-dimethyl-3,4-dihydro-3-oxo-2H-pyrido[3,2-b][1,4]oxazin-6-yl)-5-fluoro-N2-[3-difluoromethoxy-4-morpholinophenyl]-2,4-pyrimidinediamine], for which the negative logarithm of the IC50 (pIC50) is 4.00 to 6.00.

With `C[C@@H]1CN(c2ccc(Nc3ncc(F)c(Nc4ccc5c(n4)NC(=O)CO5)n3)cn2)C[C@H](C)O1` [Compound 95, rac-Cis-N4-(3,4-dihydro-3-oxo-2H-pyrido[3,2-b][1,4]oxazin-6-yl)-N2-[6-(2,6-dimethylmorpholino)pyridin-3-yl]-5-fluoro-2,4-pyrimidinediamine], the pIC50 was 6.30 to 7.00.

With `CC1(C)Oc2ccc(Nc3nc(Nc4ccc5nc(-c6ccncc6)[nH]c5c4)ncc3F)nc2NC1=O` [Compound 132, N4-(2,2-dimethyl-3,4-dihydro-3-oxo-2H-pyrido[3,2-b][1,4]oxazin-6-yl)-5-fluoro-N2-[2-(pyridin-4-yl)-1H-benzo[d]imidazol-6-yl]-2,4-pyrimidinediamine], the negative-log IC50 (pIC50) is more than 7.00.

Regarding `CC1(C)Oc2ccc(Nc3nc(Nc4ccc(NC5CCOCC5)nc4)ncc3F)nc2NC1=O` [Compound 134], the pIC50 is more than 7.00.

For `CC1(C)Oc2ccc(Nc3nc(Nc4ccc(N5CC[C@@H](F)C5)nc4)ncc3F)nc2NC1=O` [Compound 136, (R)—N4-(2,2-dimethyl-3,4-dihydro-3-oxo-2H-pyrido[3,2-b][1,4]oxazin-6-yl)-5-fluoro-N2-[6-(3-fluoropyrrolidin-1-yl)pyrid-3-yl]-2,4-pyrimidinediamine], the pIC50 was more than 7.00.

`CC1(C)Oc2ccc(Nc3nc(Nc4cnc(N5CCOCC5)c(F)c4)ncc3F)nc2NC1=O` [Compound 10, N4-(2,2-dimethyl-3,4-dihydro-3-oxo-2H-pyrido[3,2-b][1,4]oxazin-6-yl)-5-fluoro-N2-[5-fluoro-6-morpholinopyridin-3-yl]-2,4-pyrimidinediamine]: the pIC50 was 6.30 to 7.00.

Turning to `CN(C[C@@H]1CCCO1)c1ccc(Nc2ncc(F)c(Nc3ccc4c(n3)NC(=O)C(C)(C)O4)n2)cn1` [Compound 109], the pIC50 was 6.30 to 7.00.

On to `CC1(C)Oc2ccc(Nc3nc(Nc4ccc5ccncc5c4)ncc3F)nc2NC1=O` [Compound 133, N4-(2,2-dimethyl-3,4-dihydro-3-oxo-2H-pyrido[3,2-b][1,4]oxazin-6-yl)-5-fluoro-N2-(isoquinolin-7-yl)-2,4-pyrimidinediamine], for which the pIC50 was more than 7.00.

For `CN(C)C[C@@H]1CN(c2ccc(Nc3ncc(F)c(Nc4ccc5c(n4)NC(=O)CO5)n3)cc2)CCO1` (racemic) [Compound 121, rac-N4-(3,4-dihydro-3-oxo-2H-pyrido[3,2-b][1,4]oxazin-6-yl)-N2-[4-((2-dimethylaminomethyl)morpholino)phenyl]-5-fluoro-2,4-pyrimidinediamine], the pIC50 is more than 7.00.

Turning to `CC1(C)Oc2ccc(Nc3nc(Nc4ccc(N5CCNC(=O)C5)cc4)ncc3F)nc2NC1=O` [Compound 151, N4-(2,2-dimethyl-3,4-dihydro-3-oxo-2H-pyrido[3,2-b][1,4]oxazin-6-yl)-5-fluoro-N2-[4-(3-oxopiperazin-1-yl)phenyl]-2,4-pyrimidinediamine], the pIC50 is 6.30 to 7.00.

As to `CC1(C)Oc2ccc(Nc3nc(Nc4ccc(N5CCC6(CCOC6)CC5)nc4)ncc3F)nc2NC1=O` [Compound 144, N4-(2,2-dimethyl-3,4-dihydro-3-oxo-2H-pyrido[3,2-b][1,4]oxazin-6-yl)-5-fluoro-N2-[6-(2-oxa-8-azaspiro[4.5]decan-8-yl)pyridin-3-yl]-2,4-pyrimidinediamine], the pIC50 was 6.30 to 7.00.

For the molecule `CC1(C)CN(c2ccc(Nc3ncc(F)c(Nc4ccc5c(n4)NC(=O)C(C)(C)O5)n3)cn2)CCO1` [Compound 8, N4-(2,2-dimethyl-3,4-dihydro-3-oxo-2H-pyrido[3,2-b][1,4]oxazin-6-yl)-5-fluoro-N2-[6-(2,2-dimethylmorpholino)pyridin-3-yl]-2,4-pyrimidinediamine], the pIC50 was 6.30 to 7.00.

Take `CC1(C)Oc2ccc(Nc3nc(Nc4ccc(N5CCOCC5=O)cc4)ncc3F)nc2NC1=O` [Compound 40, N4-(2,2-dimethyl-3,4-dihydro-3-oxo-2H-pyrido[3,2-b][1,4]oxazin-6-yl)-5-fluoro-N2-[4-(morpholin-2-one)phenyl]-2,4-pyrimidinediamine]: the pIC50 was 6.30 to 7.00.

As for `[2H]C1([2H])OC([2H])([2H])C([2H])([2H])N(c2ccc(Nc3ncc(F)c(Nc4ccc5c(n4)NC(=O)CO5)n3)cn2)C1([2H])[2H]` [Compound 106, N4-(3,4-dihydro-3-oxo-2H-pyrido[3,2-b][1,4]oxazin-6-yl)-5-fluoro-N2-[6-(2,2,3,3,5,5,6,6-d8-morpholino)pyridin-3-yl]-2,4-pyrimidinediamine], the pIC50 is more than 7.00.

Staying with this experiment, now noted: anti-IgG stimulation, activity of tryptase released upon degranulation.
`C[C@H]1COCCN1c1ccc(Nc2ncc(F)c(Nc3ccc4c(n3)N(COP(=O)(O)O)C(=O)C(C)(C)O4)n2)cn1` [Compound 97, N4-(2,2-dimethyl-3,4-dihydro-4-[(dihydrogenphosphonoxy)methyl]-3-oxo-2H-pyrido[3,2-b][1,4]oxazin-6-yl)-5-fluoro-N2-[6-((3S)-3-methylmorpholino)pyridin-3-yl]-2,4-pyrimidinediamine disodium salt]: the pIC50 was 4.00 to 6.00.
